We go through 19 compounds from patent publication US8067619B2, “Coumarin derivatives as ion channel openers” (Janssen Pharmaceutica N.V., priority 2005, dated 2011).

Some results are limits rather than exact numbers.

For orientation: EC50 means the concentration giving half of the maximal effect. Read a low EC50 as a more potent agent.

T1 sequence (O60706 1-1549 isoform O60706-2): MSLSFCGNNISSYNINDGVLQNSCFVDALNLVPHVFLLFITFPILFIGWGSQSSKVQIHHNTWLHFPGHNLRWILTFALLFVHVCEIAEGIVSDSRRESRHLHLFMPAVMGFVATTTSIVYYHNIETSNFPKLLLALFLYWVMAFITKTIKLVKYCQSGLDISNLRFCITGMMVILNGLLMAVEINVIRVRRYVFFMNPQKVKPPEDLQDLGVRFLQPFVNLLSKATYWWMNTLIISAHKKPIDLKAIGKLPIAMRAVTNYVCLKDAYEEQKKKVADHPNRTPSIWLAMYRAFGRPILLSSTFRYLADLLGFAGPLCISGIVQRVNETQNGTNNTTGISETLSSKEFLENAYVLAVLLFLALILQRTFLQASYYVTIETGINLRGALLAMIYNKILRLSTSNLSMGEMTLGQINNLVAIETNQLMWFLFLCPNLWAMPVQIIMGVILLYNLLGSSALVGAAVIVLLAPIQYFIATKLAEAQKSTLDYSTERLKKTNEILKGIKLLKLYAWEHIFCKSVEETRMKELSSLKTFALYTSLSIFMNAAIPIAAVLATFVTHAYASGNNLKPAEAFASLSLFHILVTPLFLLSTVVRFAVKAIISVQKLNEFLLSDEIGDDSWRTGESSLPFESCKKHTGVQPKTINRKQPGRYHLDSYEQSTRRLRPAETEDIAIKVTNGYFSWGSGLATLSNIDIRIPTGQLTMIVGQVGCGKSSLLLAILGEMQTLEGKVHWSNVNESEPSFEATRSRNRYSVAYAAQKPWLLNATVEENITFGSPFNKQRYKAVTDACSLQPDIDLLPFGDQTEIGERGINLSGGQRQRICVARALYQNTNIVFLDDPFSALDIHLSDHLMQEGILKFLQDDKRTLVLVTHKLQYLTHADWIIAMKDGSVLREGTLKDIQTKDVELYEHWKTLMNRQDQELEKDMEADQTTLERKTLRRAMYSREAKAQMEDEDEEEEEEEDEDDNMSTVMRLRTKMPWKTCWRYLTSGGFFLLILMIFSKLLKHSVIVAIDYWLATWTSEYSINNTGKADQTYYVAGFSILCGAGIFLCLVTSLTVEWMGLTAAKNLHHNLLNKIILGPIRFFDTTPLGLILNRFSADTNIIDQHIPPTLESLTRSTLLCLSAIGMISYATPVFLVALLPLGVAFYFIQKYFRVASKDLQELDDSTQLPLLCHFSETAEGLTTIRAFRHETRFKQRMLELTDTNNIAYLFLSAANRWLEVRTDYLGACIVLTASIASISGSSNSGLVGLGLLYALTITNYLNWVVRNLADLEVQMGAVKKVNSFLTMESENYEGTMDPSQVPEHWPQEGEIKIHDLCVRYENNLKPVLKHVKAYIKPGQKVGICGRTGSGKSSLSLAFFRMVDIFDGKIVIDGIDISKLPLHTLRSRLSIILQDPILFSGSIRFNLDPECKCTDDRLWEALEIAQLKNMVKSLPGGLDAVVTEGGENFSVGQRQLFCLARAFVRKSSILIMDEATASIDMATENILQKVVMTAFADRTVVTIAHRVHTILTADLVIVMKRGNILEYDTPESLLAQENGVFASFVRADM
T1 sequence (Q14654 whole entry): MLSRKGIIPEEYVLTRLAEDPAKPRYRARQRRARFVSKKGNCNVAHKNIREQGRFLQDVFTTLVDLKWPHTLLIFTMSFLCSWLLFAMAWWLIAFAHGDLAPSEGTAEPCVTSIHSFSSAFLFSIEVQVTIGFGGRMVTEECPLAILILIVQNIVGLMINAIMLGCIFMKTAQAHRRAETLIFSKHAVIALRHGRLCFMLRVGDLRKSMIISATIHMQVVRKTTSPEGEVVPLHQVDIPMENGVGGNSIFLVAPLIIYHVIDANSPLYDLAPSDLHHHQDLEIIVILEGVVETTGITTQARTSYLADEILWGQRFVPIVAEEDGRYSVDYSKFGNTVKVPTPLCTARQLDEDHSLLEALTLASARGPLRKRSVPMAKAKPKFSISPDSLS

This test has as its target T1, KATP channels (Homo sapiens, UniProt O60706+Q14654).
T1 construct: TE671 human medulloblastoma cells were obtained from ATCC; host or cells: TE671 human medulloblastoma cells
Put plainly: Potassium Channel Assay (FLIPR membrane potential, TE671 cells). Type of test: cell-based. Particulars: TE671 human medulloblastoma cells, Membrane Potential Assay Dye, room temperature, hyperpolarization from KATP channel opening seen as decrease in fluorescent intensity. The procedure:
TE671 human medulloblastoma cells were obtained from ATCC and grown in Dulbecco's modified Eagle's medium (DMEM) supplemented with 10% fetal bovine serum, 100 U/ml penicillin and 100 U/ml streptomycine.
The day before testing, the cells were plated in black 96-well plates at 50K/well. On the day of testing, the growth media was removed, then 100 μl of FLIPR buffer (20 mM HEPES, 120 mM NaCl, 2 mM KCl, 2 mM CaCl2, 1 mM MgCl2, 5 mM Glucose) and 100 μl of Membrane Potential Assay Dye (Molecular Devices) dissolved in FLIPR buffer were added to each well. The cells were incubated at room temperature for 15 to 30 min.
The effect of test compounds on KATP channels were evaluated on a fluorometric imaging plate reader (FLIPR, Molecular Devices) at room temperature. After a baseline period, 50 μl of 5× stock solution of test compound prepared in FLIPR buffer was added and fluorescent change was monitored for 3 minutes. After this reading, glyburide, a KATP channel blocker, was added to a final concentration of 5 μM to check the specificity of the test compound as a KATP channel openers. Hyperpolarization resulting from KATP channel opening was observed as a decrease in fluorescent intensity.
`COCCc1c(-c2ccc(OC)cc2OC)c(=O)oc2cc(OS(=O)(=O)C(F)(F)F)ccc12` [Compound 2, Trifluoro-methanesulfonic acid 3-(2,4-dimethoxy-phenyl)-4-(2-methoxy-ethyl)-2-oxo-2H-chromen-7-yl ester] returned a concentration for a half-maximal effect (EC50) of 9.55 µM.
With `C=Cc1c(-c2ccc(O)cc2O)c(=O)oc2cc(C#N)ccc12` [Compound 9, 3-(2,4-Dihydroxy-phenyl)-2-oxo-4-vinyl-2H-chromene-7-carbonitrile] the figure was 3.29 µM; with `N#Cc1ccc2c(CCO)c(-c3ccc(O)cc3O)c(=O)oc2c1` [Compound 8, 3-(2,4-Dihydroxy-phenyl)-4-(2-hydroxy-ethyl)-2-oxo-2H-chromene-7-carbonitrile], 23.2 µM.
With `O=c1cc(CC(O)c2ccc(Cl)cc2Cl)c2ccc(OS(=O)(=O)C(F)(F)F)cc2o1` (stereo not shown) [Compound 12, Trifluoro-methanesulfonic acid 4-[2-(2,4-dichloro-phenyl)-2-hydroxy-ethyl]-2-oxo-2H-chromen-7-yl ester] the figure was 6.58 µM; with `N#Cc1ccc2c(CC(=O)Nc3cccc(Cl)c3)cc(=O)oc2c1` [Compound 18, N-(3-Chloro-phenyl)-2-(7-cyano-2-oxo-2H-chromen-4-yl)-acetamide], 7.74 µM; with `N#Cc1ccc2c(CC(=O)Nc3ccc(F)cc3F)cc(=O)oc2c1` [Compound 15, 2-(7-Cyano-2-oxo-2H-chromen-4-yl)-N-(2,4-difluoro-phenyl)-acetamide], 13.9 µM.
Turning to `N#Cc1ccc2oc(=O)cc(CC(=O)c3cccc(Cl)c3)c2c1` [Compound 21, 4-[2-(3-Chloro-phenyl)-2-oxo-ethyl]-2-oxo-2H-chromene-6-carbonitrile], the EC50 is over 30 µM.
Then `N#Cc1ccc2oc(=O)cc(CC(O)c3ccc(Cl)cc3Cl)c2c1` (stereo not shown) [Compound 20, 4-[2-(2,4-Dichloro-phenyl)-2-hydroxy-ethyl]-2-oxo-2H-chromene-6-carbonitrile], with over 30 µM; and `O=C(Cc1cc(=O)oc2cc(OS(=O)(=O)C(F)(F)F)ccc12)Nc1c(Cl)cc(Cl)cc1Cl` [Compound 13, Trifluoro-methanesulfonic acid 2-oxo-4-[(2,4,6-trichloro-phenylcarbamoyl)-methyl]-2H-chromen-7-yl ester], with 8.76 µM.
`O=c1oc2cc(OS(=O)(=O)C(F)(F)F)ccc2c(CCO)c1-c1ccc(O)cc1O` [Compound 7, Trifluoro-methanesulfonic acid 3-(2,4-dihydroxy-phenyl)-4-(2-hydroxy-ethyl)-2-oxo-2H-chromen-7-yl ester] returned an EC50 of 19.5 µM.
With `O=C(Cc1cc(=O)oc2ccc(OS(=O)(=O)C(F)(F)F)cc12)c1cccc(Cl)c1` [Compound 22, Trifluoro-methanesulfonic acid 4-[2-(3-chloro-phenyl)-2-oxo-ethyl]-2-oxo-2H-chromen-6-yl ester] the figure was 19.9 µM; with `N#Cc1ccc2c(CC(=O)Nc3cccc(Cl)c3Cl)cc(=O)oc2c1` [Compound 19, 2-(7-Cyano-2-oxo-2H-chromen-4-yl)-N-(2,3-dichloro-phenyl)-acetamide], 10.7 µM.
Then `COCCc1c(-c2ccc(OC)cc2OC)c(=O)oc2cc(C#N)ccc12` [Compound 6, 3-(2,4-Dimethoxy-phenyl)-4-(2-methoxy-ethyl)-2-oxo-2H-chromene-7-carbonitrile], with over 30 µM; and `C=Cc1c(-c2ccc(C#N)cc2O)c(=O)oc2cc(F)ccc12` [Compound 11, 44-(7-Fluoro-2-oxo-4-vinyl-2H-chromen-3-yl)-3-hydroxy-benzonitrile], with over 30 µM; and `N#Cc1ccc2c(CC(=O)Nc3ccccc3F)cc(=O)oc2c1` [Compound 16, 2-(7-Cyano-2-oxo-2H-chromen-4-yl)-N-(2-fluoro-phenyl)-acetamide], with 3.84 µM.
Regarding `N#Cc1ccc2c(CC(=O)c3ccc(Cl)cc3)cc(=O)oc2c1` [Compound 4, 4-[2-(4-Chloro-phenyl)-2-oxo-ethyl]-2-oxo-2H-chromene-7-carbonitrile], the response was half-maximal at 15.9 µM (EC50).
The compound `N#Cc1ccc2c(CC(O)c3ccc(Cl)cc3Cl)cc(=O)oc2c1` (stereo not shown) [Compound 14, 4-[2-(2,4-Dichloro-phenyl)-2-hydroxy-ethyl]-2-oxo-2H-chromene-7-carbonitrile] showed a half-maximal effective concentration (EC50) of over 30 µM.
With `Cc1c(C(=O)c2ccc(Cl)cc2)c(=O)oc2cc(C#N)ccc12` [Compound 3, 3-(4-Chloro-benzoyl)-4-methyl-2-oxo-2H-chromene-7-carbonitrile] the figure was over 30 µM; with `N#Cc1ccc2c(CC(=O)Nc3ccccc3Cl)cc(=O)oc2c1` [Compound 17, N-(2-Chloro-phenyl)-2-(7-cyano-2-oxo-2H-chromen-4-yl)-acetamide], 19.5 µM.
